Laboratory results as given in PubChem BioAssay AID256 (DTP/NCI, 2004).
“And” between values parts separate entries of the source, which are not always exact repeats. Equal values may be shown once. Inconclusive results and toxic doses are left out. How the source made its calls: active means survival T/C of 150% or more; inactive means T/C below 125% in these data.

Tested on: CD2F1 mice, L1210 leukemia ip, survival T/C
Assay: NCI In Vivo Anticancer Drug Screen. Data for tumor model L1210 Leukemia (intraperitoneal) in CD2F1 (CDF1) mice
Conditions: higher = longer survival
Description: The antitumor activity of compounds was measured in mice bearing transplantable tumors. Survival or tumor size were measured and the results are expressed as the measurement made in the treated group (T) divided by the measurement made in the vehicle treated control group (C). The tumor model used in this assay is L1210 Leukemia (intraperitoneal) in CD2F1 (CDF1) mice

[1] = endpoint: mean survival time, dose: 200.0 mg/kg/injection, schedule: Q01DX009 (ip), vehicle: saline with Tween-80
[2] = endpoint: mean survival time, dose: 400.0 mg/kg/injection, schedule: Q01DX009 (ip), vehicle: saline with Tween-80
[3] = endpoint: mean survival time, dose: 100.0 mg/kg/injection, schedule: Q04DX003 (ip), vehicle: saline with Tween-80
[4] = endpoint: mean survival time, dose: 200.0 mg/kg/injection, schedule: Q04DX003 (ip), vehicle: saline with Tween-80
[5] = endpoint: mean survival time, dose: 400.0 mg/kg/injection, schedule: Q04DX003 (ip), vehicle: saline with Tween-80
[6] = endpoint: mean survival time, dose: 100.0 mg/kg/injection, schedule: Q01DX001 (ip), vehicle: saline with Tween-80
[7] = endpoint: mean survival time, dose: 200.0 mg/kg/injection, schedule: Q01DX001 (ip), vehicle: saline with Tween-80
[8] = endpoint: mean survival time, dose: 400.0 mg/kg/injection, schedule: Q01DX001 (ip), vehicle: saline with Tween-80

Measured: T/C

CC1=COC2CCCCC2O1 (stereo unspecified) (tested in a mixture with another compound)
inactive: endpoint: mean survival time, dose: 100.0 mg/kg/injection, schedule: Q01DX009 (ip), vehicle: saline with Tween-80 95 % of control | [1] 97 % of control | [2] 91 % of control

COc1nc(Cl)nc(Cl)c1Cl (tested in a mixture with another compound)
inactive: endpoint: mean survival time, dose: 12.5 mg/kg/injection, schedule: Q01DX009 (ip), vehicle: other 93 % of control | endpoint: mean survival time, dose: 25.0 mg/kg/injection, schedule: Q01DX009 (ip), vehicle: other 93 % of control | endpoint: mean survival time, dose: 50.0 mg/kg/injection, schedule: Q01DX009 (ip), vehicle: other 104 % of control

CCCc1nc2ccccc2c(=O)n1/N=C/c1ccsc1
inactive: endpoint: mean survival time, dose: 100.0 mg/kg/injection, schedule: Q01DX009 (ip), vehicle: saline sonified 100 % of control | endpoint: mean survival time, dose: 200.0 mg/kg/injection, schedule: Q01DX009 (ip), vehicle: saline sonified 102 % of control | endpoint: mean survival time, dose: 400.0 mg/kg/injection, schedule: Q01DX009 (ip), vehicle: saline sonified 93 % of control

CCCCCCC(O)CCCCCCCCCCC(=O)O (stereo unspecified)
inactive: [3] 98 % of control | [4] 92 % of control | [5] 90 % of control

CC1=CC(O)(c2ccccc2)C(C)=CC1=O (stereo unspecified)
inactive: [6] 97 % of control | [7] 97 % of control | [8] 93 % of control

COc1cc([N+](=O)[O-])ccc1NC(=O)Nc1nccs1
inactive: endpoint: mean survival time, dose: 50.0 mg/kg/injection, schedule: Q01DX009 (ip), vehicle: saline with Tween-80 96 % of control and 97 % of control | [6] 97 % of control | endpoint: mean survival time, dose: 100.0 mg/kg/injection, schedule: Q04DX002 (ip), vehicle: saline with Tween-80 87 % of control | [3] 98 % of control | [7] 92 % of control | [1] 95 % of control and 100 % of control and 104 % of control | endpoint: mean survival time, dose: 200.0 mg/kg/injection, schedule: Q04DX002 (ip), vehicle: saline with Tween-80 95 % of control | [4] 95 % of control | [8] 100 % of control | [2] 97 % of control | endpoint: mean survival time, dose: 400.0 mg/kg/injection, schedule: Q04DX002 (ip), vehicle: saline with Tween-80 102 % of control | [5] 101 % of control

CC(=O)N(c1ccccc1)C1CCC2(C)C(=CCC3C2CCC2(C)C(C(C)CCCC(C)C)CCC32)C1 (stereo unspecified)
inactive: endpoint: mean survival time, dose: 100.0 mg/kg/injection, schedule: Q01DX009 (sc), vehicle: steriod suspending solution 96 % of control | endpoint: mean survival time, dose: 100.0 mg/kg/injection, schedule: Q04DX003 (sc), vehicle: steriod suspending solution 95 % of control | endpoint: mean survival time, dose: 200.0 mg/kg/injection, schedule: Q01DX009 (sc), vehicle: steriod suspending solution 102 % of control | endpoint: mean survival time, dose: 200.0 mg/kg/injection, schedule: Q04DX003 (sc), vehicle: steriod suspending solution 93 % of control | endpoint: mean survival time, dose: 400.0 mg/kg/injection, schedule: Q01DX009 (sc), vehicle: steriod suspending solution 102 % of control | endpoint: mean survival time, dose: 400.0 mg/kg/injection, schedule: Q04DX003 (sc), vehicle: steriod suspending solution 96 % of control

CC1=C2CC3C(CC2(C)C(=O)C=C1)OC(=O)C3C (stereo unspecified)
inactive: [3] 93 % of control | [4] 89 % of control | [5] 98 % of control

Nc1ccc(N)c(N)c1
inactive: endpoint: mean survival time, dose: 100.0 mg/kg/injection, schedule: Q04DX002 (ip), vehicle: saline 97 % of control | endpoint: mean survival time, dose: 200.0 mg/kg/injection, schedule: Q04DX002 (ip), vehicle: saline 90 % of control | endpoint: mean survival time, dose: 400.0 mg/kg/injection, schedule: Q04DX002 (ip), vehicle: saline 97 % of control

NCCS(=O)(=O)O
inactive: endpoint: mean survival time, dose: 100.0 mg/kg/injection, schedule: Q01DX009 (ip), vehicle: water 95 % of control | endpoint: mean survival time, dose: 200.0 mg/kg/injection, schedule: Q01DX001 (ip), vehicle: water 98 % of control | endpoint: mean survival time, dose: 200.0 mg/kg/injection, schedule: Q01DX009 (ip), vehicle: water 86 % of control | endpoint: mean survival time, dose: 400.0 mg/kg/injection, schedule: Q01DX001 (ip), vehicle: water 96 % of control | endpoint: mean survival time, dose: 400.0 mg/kg/injection, schedule: Q01DX009 (ip), vehicle: water 92 % of control | endpoint: mean survival time, dose: 800.0 mg/kg/injection, schedule: Q01DX001 (ip), vehicle: water 98 % of control | endpoint: mean survival time, dose: 800.0 mg/kg/injection, schedule: Q01DX009 (ip), vehicle: water 92 % of control | endpoint: mean survival time, dose: 1600.0 mg/kg/injection, schedule: Q01DX001 (ip), vehicle: water 107 % of control

Nc1ccc2ccc(NS(=O)(=O)N3CCCCC3)cc2c1
active: endpoint: median survival time, dose: 400.0 mg/kg/injection, schedule: Q01DX009 (ip), vehicle: saline with Tween-80 182 % of control
inactive: endpoint: median survival time, dose: 25.0 mg/kg/injection, schedule: Q01DX009 (ip), vehicle: saline with Tween-80 118 % of control and 101 % of control and 106 % of control | endpoint: median survival time, dose: 50.0 mg/kg/injection, schedule: Q01DX009 (ip), vehicle: saline with Tween-80 100 % of control and 109 % of control and 112 % of control | endpoint: median survival time, dose: 100.0 mg/kg/injection, schedule: Q01DX009 (ip), vehicle: saline with Tween-80 114 % of control and 118 % of control and 119 % of control
